In US11390604B2 (Hoffmann-La Roche Inc., priority 2019, dated 2022):
Structures can show the parent of a compound that is named as a salt. Where two headings read alike, the source gives them in different places.

Tested on: Acinetobacter baumannii ATCC 17961
Test: Antimicrobial susceptibility testing: 90% growth inhibitory concentration (IC90) determination
Assay type: cell-based
Conditions: read-out: ATCC 17961 IC90
Summary of the method: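 Growth was followed kinetically by OD600 at 20-min intervals for 16 h at 35±2 °C, with ~5×10^5 CFU/ml in Iso-Sensitest broth. Compounds were tested as twofold dilutions (e.g. 50–0.097 μM final). The concentration giving 90% inhibition of log-phase growth was reported.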

[1] = Acinetobacter baumannii ATCC 17961, Iso-Sensitest broth
[2] = ATCC17961, Acinetobacter baumannii ATCC 17961, Iso-Sensitest broth

Row | Compound | IC90 [2] [nM] | IC90 [1] [nM]
1 | N-[4-[(4-aminocyclohexyl)carbamoyl]-3-chlorophenyl]-1-methyl-5-[3-(trifluoromethyl)-1H-pyrazol-4-yl]imidazole-2-carboxamide;2,2,2-trifluoroacetic acid [Example 123] |  | 3840
2 | C=CCn1cc(-c2cnc(C(=O)Nc3ccc(C(=O)NC4CC(N)C4)c(Cl)c3)n2C)c(C(F)(F)F)n1 (centres unmarked) [Example 126, N-[4-[(3-aminocyclobutyl)carbamoyl]-3-chlorophenyl]-1-methyl-5-[1-prop-2-enyl-3-(trifluoromethyl)pyrazol-4-yl]imidazole-2-carboxamide;2,2,2-trifluoroacetic acid] |  | 293
3 | Cn1c(-c2cn(C3CC3)nc2C(F)(F)F)cnc1C(=O)Nc1ccc(C(=O)N2CCN(C(=O)CN)CC2)c(Cl)c1 [Example 200, N-(3-chloro-4-(4-glycylpiperazine-1-carbonyl)phenyl)-5-(1-cyclopropyl-3-(trifluoromethyl)-1H-pyrazol-4-yl)-1-methyl-1H-imidazole-2-carboxamide hydrochloride] | 215 | 
4 | C#CCn1cc(-c2cnc(C(=O)Nc3ccc(C(=O)N4CCN(C(=O)C5CCNCC5)CC4)c(F)c3)n2C)c(C(F)(F)F)n1 [Example 261, N-(3-fluoro-4-(4-(piperidine-4-carbonyl)piperazine-1-carbonyl)phenyl)-1-methyl-5-(1-(prop-2-yn-1-yl)-3-(trifluoromethyl)-1H-pyrazol-4-yl)-1H-imidazole-2-carboxamide] | 323 | 
5 | Cc1cc(NC(=O)c2ncc(-c3cn(CC(F)F)nc3C(F)(F)F)n2C)ccc1S(C)(=O)=NCCCN (centres unmarked) [Example 353, N-[4-[N-(3-aminopropyl)-S-methyl-sulfonimidoyl]-3-methyl-phenyl]-5-[1-(2,2-difluoroethyl)-3-(trifluoromethyl)pyrazol-4-yl]-1-methyl-imidazole-2-carboxamide; formic acid] | 462 | 
6 | Cn1c(-c2cn(CC(F)F)nc2C(F)(F)F)cnc1C(=O)Nc1ccc(C(=O)N2CCN(C(=O)[C@H]3[C@@H]4CNC[C@@H]43)CC2)c(F)c1 [Example 213, rac-N-(4-(4-((1R,5S,6r)-3-azabicyclo[3.1.0]hexane-6-carbonyl)piperazine-1-carbonyl)-3-fluorophenyl)-5-(1-(2,2-difluoroethyl)-3-(trifluoromethyl)-1H-pyrazol-4-yl)-1-methyl-1H-imidazole-2-carboxamide] | 240 | 
7 | Cn1c(-c2cn([C@@H]3CC3(F)F)nc2C(F)(F)F)cnc1C(=O)Nc1ccc(C(=O)N[C@H]2[C@@H]3CN(C(=O)N[C@H]4CNC[C@@H]4O)C[C@@H]32)c(Cl)c1 [Example 380, (1R,5S,6R)-6-(2-chloro-4-(5-(1-((R)-2,2-difluorocyclopropyl)-3-(trifluoromethyl)-1H-pyrazol-4-yl)-1-methyl-1H-imidazole-2-carboxamido)benzamido)-N-((3S,4S)-4-hydroxypyrrolidin-3-yl)-3-azabicyclo[3.1.0]hexane-3-carboxamide] | 104 | 
8 | Cc1cc(NC(=O)c2ncc(-c3cn(CC#N)nc3C(F)(F)F)n2C)ccc1S(C)(=O)=NCCCN (centres unmarked) [Example 291, N-[4-[N-(3-aminopropyl)-S-methyl-sulfonimidoyl]-3-methyl-phenyl]-5-[1-(cyanomethyl)-3-(trifluoromethyl)pyrazol-4-yl]-1-methyl-imidazole-2-carboxamide; formic acid] | 359 | 
9 | C#CCn1cc(-c2cnc(C(=O)Nc3ccc(C(=O)NCCCN)c(Cl)c3)n2C)c(C(F)(F)F)n1 [Example 44, N-(4-((3-aminopropyl)carbamoyl)-3-chlorophenyl)-1-methyl-5-(1-(prop-2-yn-1-yl)-3-(trifluoromethyl)-1H-pyrazol-4-yl)-1H-imidazole-2-carboxamide 2,2,2-trifluoroacetate] | 556 | 
10 | Cn1c(-c2cn(CC#N)nc2C(F)(F)F)cnc1C(=O)Nc1ccc(C(=O)NCCCCN)c(Cl)c1 [Example 345, N-(4-((4-aminobutyl)carbamoyl)-3-chlorophenyl)-5-(1-(cyanomethyl)-3-(trifluoromethyl)-1H-pyrazol-4-yl)-1-methyl-1H-imidazole-2-carboxamide tris(2,2,2-trifluoroacetate)] | 444 | 
11 | Cn1c(-c2cn(CCF)nc2C(F)(F)F)cnc1C(=O)Nc1ccc(C(=O)N2CCN(C(=O)[C@H]3C[C@@H](N)C3)CC2)c(Cl)c1 [Example 74, N-[4-[4-(3-aminocyclobutanecarbonyl)piperazine-1-carbonyl]-3-chlorophenyl]-5-[1-(2-fluoroethyl)-3-(trifluoromethyl)pyrazol-4-yl]-1-methylimidazole-2-carboxamide;hydrochloride] | 347 | 
12 | Cc1cc(NC(=O)c2ncc(-c3cn(CC#N)nc3C(F)(F)F)n2C)cc(F)c1C(=O)N1CCN(C(=O)[C@H](C)N)CC1 [Example 121, N-[4-[4-[(2S)-2-aminopropanoyl]piperazine-1-carbonyl]-3-fluoro-5-methylphenyl]-5-[1-(cyanomethyl)-3-(trifluoromethyl)pyrazol-4-yl]-1-methylimidazole-2-carboxamide] | 970 | 
13 | Cn1c(-c2cn(C3CC3)nc2C(F)(F)F)cnc1C(=O)Nc1ccc(C(=O)N2CCN(C(=O)NC3CCNC3)CC2)c(Cl)c1 (centres unmarked) [Example 236, 4-[2-chloro-4-[[5-[1-cyclopropyl-3-(trifluoromethyl)pyrazol-4-yl]-1-methylimidazole-2-carbonyl]amino]benzoyl]-N-pyrrolidin-3-ylpiperazine-1-carboxamide;formic acid] | 270 | 

Now from value to compound, other results behind:

Row | IC90 [2] [nM] | Compound | IC90 [1] [nM]
14 | 422 | CN(CCCCNC(=O)c1ccc(NC(=O)c2ncc(-c3cn(C4CC4(F)F)nc3C(F)(F)F)n2C)cc1Cl)C(=O)N[C@H]1CNC[C@@H]1O (mixture of isomers) [Example 331, rac-N-(3-chloro-4-((4-(3-((3S,4S)-4-hydroxypyrrolidin-3-yl)-1-methylureido)butyl)carbamoyl)phenyl)-5-(1-(2,2-difluorocyclopropyl)-3-(trifluoromethyl)-1H-pyrazol-4-yl)-1-methyl-1H-imidazole-2-carboxamide formate] | 
15 | 448 | CC(C)n1cc(-c2cnc(C(=O)Nc3ccc(C(=O)N4CCN(C(=O)C5CCNCC5)CC4)c(Cl)c3)n2C)c(C(F)(F)F)n1 [Example 102, N-[3-chloro-4-[4-(piperidine-4-carbonyl)piperazine-1-carbonyl]phenyl]-1-methyl-5-[1-propan-2-yl-3-(trifluoromethyl)pyrazol-4-yl]imidazole-2-carboxamide;hydrochloride] | 
16 | 495 | CCn1cc(-c2cnc(C(=O)Nc3ccc(C(=O)N4CCN(C(=O)C5CCNCC5)CC4)c(Br)c3)n2C)c(C(F)(F)F)n1 [Example 374, N-(3-bromo-4-(4-(piperidine-4-carbonyl)piperazine-1-carbonyl)phenyl)-5-(1-ethyl-3-(trifluoromethyl)-1H-pyrazol-4-yl)-1-methyl-1H-imidazole-2-carboxamide hydrochloride] | 
17 | 262 | Cn1c(-c2cn(CC3CC3)nc2C(F)(F)F)cnc1C(=O)Nc1ccc(C(=O)NC2C3CN(C(=O)C4CCNCC4)CC32)c(Cl)c1 (centres unmarked) [Example 227, N-(3-chloro-4-((3-(piperidine-4-carbonyl)-3-azabicyclo[3.1.0]hexan-6-yl)carbamoyl)phenyl)-5-(1-(cyclopropylmethyl)-3-(trifluoromethyl)-1H-pyrazol-4-yl)-1-methyl-1H-imidazole-2-carboxamide formate] | 
18 | 314 | Cn1c(-c2cn(CC3CCC3)nc2C(F)(F)F)cnc1C(=O)Nc1ccc(C(=O)N2CCN(C(=O)N[C@H]3C[C@@H](N)C3)CC2)c(Cl)c1 [Example 260, rac-N-((1s,3s)-3-aminocyclobutyl)-4-(2-chloro-4-(5-(1-(cyclobutylmethyl)-3-(trifluoromethyl)-1H-pyrazol-4-yl)-1-methyl-1H-imidazole-2-carboxamido)benzoyl)piperazine-1-carboxamide hydrochloride] | 
19 | 243 | Cn1c(-c2cn(C3CC3)nc2C(F)(F)F)cnc1C(=O)Nc1ccc(C(=O)N2CCN(C(=O)N3CC(N)C3)CC2)c(Cl)c1 [Example 216, N-(4-(4-(3-aminoazetidine-1-carbonyl)piperazine-1-carbonyl)-3-chlorophenyl)-5-(1-cyclopropyl-3-(trifluoromethyl)-1H-pyrazol-4-yl)-1-methyl-1H-imidazole-2-carboxamide formate] | 
20 | 453 | Cn1c(-c2cn(CC#N)nc2C(F)(F)F)cnc1C(=O)Nc1ccc(C(=O)N[C@H]2CC[C@@H](N)CC2)c(Cl)c1 [Example 351, N-[4-[(4-aminocyclohexyl)carbamoyl]-3-chlorophenyl]-5-[1-(cyanomethyl)-3-(trifluoromethyl)pyrazol-4-yl]-1-methylimidazole-2-carboxamide;2,2,2-trifluoroacetic acid] | 
21 | 484 | Cn1c(-c2cn(C3CC3)nc2C(F)(F)F)cnc1C(=O)Nc1ccc(C(=O)N2CCN(C(=O)[C@@H]3C[C@H](F)CN3)CC2)c(Cl)c1 [Example 367, N-(3-chloro-4-(4-((2S,4S)-4-fluoropyrrolidine-2-carbonyl)piperazine-1-carbonyl)phenyl)-5-(1-cyclopropyl-3-(trifluoromethyl)-1H-pyrazol-4-yl)-1-methyl-1H-imidazole-2-carboxamide hydrochloride] | 
22 | 202 | Cn1c(-c2cn(C3CC3(F)F)nc2C(F)(F)F)cnc1C(=O)Nc1ccc(C(=O)NCC2CC3CNCC3C2)c(Cl)c1 (centres unmarked) [Example 196, N-(3-chloro-4-(((octahydrocyclopenta[c]pyrrol-5-yl)methyl)carbamoyl)phenyl)-5-(1-(2,2-difluorocyclopropyl)-3-(trifluoromethyl)-1H-pyrazol-4-yl)-1-methyl-1H-imidazole-2-carboxamide formate] | 
23 | 485 | Cn1c(-c2cn(C3CC3)nc2C(F)(F)F)cnc1C(=O)Nc1ccc(C(=O)N2CCC(N3CCC(O)CC3)CC2)c(Cl)c1 [Example 370] | 
